From patent publication US12054449B2, “Phenylcarbamate crystalline form and method for manufacturing the same” (BIO-PHARM SOLUTIONS CO., LTD., priority 2021, dated 2024)

How the values were obtained:
[1] = Competitive slurry experiment for Pattern 1, Pattern 3, Pattern 6 and Pattern 11; assay type: physicochemical
Protocol: A mixture of Pattern 1 and Pattern 3 (ED01748-028-003-00, 10 mg each) was dispensed into four vials, and Pattern 6 (ED01748-034-002-00, 5 mg) and Pattern 11 (ED01748-037-002-00, 5 mg) were added to respective vials. Each sample was treated with 300 μL of a filtered saturated solution of Pattern 1 (ED01748-006-001-00) prepared in DIPE or heptane. The resulting slurries were stirred at room temperature and 50° C. A small sample was periodically removed and analyzed by)(RFD, followed by monitoring as described in the following table.
After analysis, the solid was returned to the vial, and a saturated solution was additionally injected as needed to maintain the slurries. After 25 days, the purity of the solid material obtained in the heptane experiment was confirmed by UPLC, and no significant decrease in purity was shown by UPLC.

[2] = Competitive slurry experiment for Pattern 1 and Pattern 3; assay type: physicochemical; details: competitive slurries in DIPE and heptane, room temperature and 50° C.
Protocol: To investigate the relative thermodynamic stability of various crystalline form patterns at room temperature and 50° C., competitive slurry experiments were carried out.
A mixture of Pattern 1 and Pattern 3 (ED01748-028-003-00, 4×20 mg) was dispensed into vials. They were treated with 250 μL of a saturated solution of Pattern 1 (ED01748-006-001-00) in DIPE or heptane (50 mg of ED01748-006-001-00 was treated with DIPE or heptane and heated at 50° C., a portion was removed as needed, and the resulting product was filtered through a 0.45 μm syringe filter, thereby forming a slurry). The produced slurry was stirred at room temperature or 50° C. After analysis, the solid was returned to the vial, and an additional saturated solution was added as needed to maintain the slurry. After 4 days, the purity of the material was confirmed by UPLC.

**Q.** With C[C@H](OC(N)=O)[C@@H](O)c1ccccc1Cl [ED01748-006-001-00, 1-(2-chlorophenyl)-(S)-1-hydroxypropyl-(S)-2-carbamate] as the compound, how does the Relative thermodynamic stability ([1]; conclusion including heptane slurries, room temperature and 50° C., 25 days) read?
**A.** more thermodynamically stable than Pattern 11 and Pattern 6

**Q.** What about the Relative thermodynamic stability ([1]; in DIPE at room temperature and 50° C., after 1 day) of the same compound?
**A.** more thermodynamically stable than Pattern 3, Pattern 6 and Pattern 11

**Q.** What about the Relative thermodynamic stability [2] of the same compound?
**A.** more thermodynamically stable than Pattern 3
